From patent US20120088800A1, “2-(SUBSTITUTED) (ARYLMETHYL, ARYLOXY and ARYLTHIO))-N-(SUBSTITUTED PYRIDIN-2-YL)-2-(SUBSTITUTED ARYL) COMPOUNDS AS SUBTYPE-SELECTIVE MODULATORS OF SPHINGOSINE-1-PHOSPHATE-3 (S1P3) RECEPTORS” (ALLERGAN, INC., priority 2009, published 2012) come the findings set out here.

By EC50 is commonly meant the concentration giving half of the maximal effect.

Holding throughout (type): cell-based
For one test, the target named is T1, S1P2 (Homo sapiens, UniProt O95136).
T1 construct: expressed in transfected cells
T1 sequence (O95136 whole entry, species assumed): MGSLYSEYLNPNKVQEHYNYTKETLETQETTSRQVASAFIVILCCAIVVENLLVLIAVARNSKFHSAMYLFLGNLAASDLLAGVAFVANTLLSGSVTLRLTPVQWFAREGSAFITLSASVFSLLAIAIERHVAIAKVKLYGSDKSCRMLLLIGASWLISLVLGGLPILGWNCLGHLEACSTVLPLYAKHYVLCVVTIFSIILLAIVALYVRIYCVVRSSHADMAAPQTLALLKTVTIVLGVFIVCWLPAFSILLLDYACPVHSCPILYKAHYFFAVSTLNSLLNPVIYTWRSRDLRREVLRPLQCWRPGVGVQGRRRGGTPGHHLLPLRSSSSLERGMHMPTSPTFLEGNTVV
The test can be described thus: FLIPR calcium assay, cells expressing S1P2 and a G-protein. The conditions noted are these: fluo-4 calcium signal compared to sphingosine 1-phosphate. An excerpt:
(§1) Novel compounds having this general structure were synthesized and tested for sphingosine 1-phosphate receptor (S1P) activity using the FLIPR assay. Cells expressing the receptor of interest (S1P1, S1P2 or S1P3) and a G-protein (Gqi5 or G16) are loaded with fluo-4, a calcium sensitive dye. After removal of excess dye by washing, the cells are placed in the FLIPR TETRA instrument. Baseline fluorescence readings are taken prior to addition the compound to be tested. Agonists will trigger the receptor to interact with the G-protein, leading to an increase in intracellular calcium. The increase in intracellular calcium causes an increase in the fluorescence of the cells, due to the presence of fluo-4. This fluorescence increase is recorded by the FLIPR TETRA. After the calcium transient signal has decreased towards baseline, the standard agonist sphingosine 1-phosphate is added. If the test compound is an antagonist, an initial calcium signal will not be generated and the antagonist will prevent the generation of a calcium signal from sphingosine 1-phosphate. The level of fluorescence is compared to that of sphingosine 1-phosphate, and the EC50 or IC50 of the compound determined by curve fitting.

The target in the next test is T2, S1P1 (Homo sapiens, UniProt P21453).
T2 construct: expressed in transfected cells
T2 sequence (P21453 whole entry, species assumed): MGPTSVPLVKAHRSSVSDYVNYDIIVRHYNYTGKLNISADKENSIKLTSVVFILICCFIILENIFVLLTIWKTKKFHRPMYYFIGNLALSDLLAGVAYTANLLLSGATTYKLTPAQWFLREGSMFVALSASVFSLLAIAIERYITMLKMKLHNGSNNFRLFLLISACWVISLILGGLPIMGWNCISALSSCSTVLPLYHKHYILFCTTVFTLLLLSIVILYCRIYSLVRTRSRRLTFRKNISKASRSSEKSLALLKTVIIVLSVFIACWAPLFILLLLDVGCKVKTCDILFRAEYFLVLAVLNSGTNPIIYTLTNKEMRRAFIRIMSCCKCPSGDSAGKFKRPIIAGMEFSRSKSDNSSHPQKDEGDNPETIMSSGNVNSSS
The test can be described thus: FLIPR calcium assay, cells expressing S1P1 and a G-protein. The conditions noted are these: fluo-4 calcium signal compared to sphingosine 1-phosphate.
Text: as §1

The next test addresses T3, S1P3 (Homo sapiens, UniProt Q99500).
T3 construct: expressed in transfected cells
The test can be described thus: FLIPR calcium assay, cells expressing S1P3 and a G-protein. The following applies: for EC50: fluo-4 calcium signal compared to sphingosine 1-phosphate, antagonist mode; for FLIPR (% Antagonism) S1P3: value in parentheses below the EC50, antagonism of sphingosine 1-phosphate signal.
Text: as §1

Where a name gives a salt, the structure may show the parent alone.

T3 sequence (Q99500 whole entry, species assumed): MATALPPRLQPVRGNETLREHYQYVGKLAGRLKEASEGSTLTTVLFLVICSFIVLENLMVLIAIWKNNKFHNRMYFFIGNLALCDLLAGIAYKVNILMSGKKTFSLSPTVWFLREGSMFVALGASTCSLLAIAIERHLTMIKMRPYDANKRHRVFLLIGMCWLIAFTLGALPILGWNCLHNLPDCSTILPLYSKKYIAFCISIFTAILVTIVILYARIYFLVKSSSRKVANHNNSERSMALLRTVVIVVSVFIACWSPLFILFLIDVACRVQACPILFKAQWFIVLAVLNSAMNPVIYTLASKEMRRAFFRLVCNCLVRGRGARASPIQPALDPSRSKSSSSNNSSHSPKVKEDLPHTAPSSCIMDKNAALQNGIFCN

In the case of `Cc1cc(OC(C(=O)Nc2ccc(Cl)cn2)c2ccc(Cl)cc2)ccc1Cl.Cl` (stereo not shown) [Example 1, 2-(4-chloro-3-methylphenoxy)-2-(4-chlorophenyl)-N-(5-chloropyridin-2-yl)acetamide hydrochloride], the EC50 was above 8300 nM on S1P2, above 8300 nM at S1P1 and 128 nM at S1P3. Besides, the “FLIPR (% Antagonism) S1P3” value on S1P3 was “(99) %”.

With `Cc1ccc(OC(C(=O)Nc2ccc(Br)cn2)c2ccc(Cl)cc2)cc1.Cl` (stereo not shown) [Example 2, N-(5-bromopyridin-2-yl)-2-(4-chlorophenyl)-2-(p-tolyloxy)acetamide hydrochloride], the values for the EC50 on S1P2, at S1P1 and at S1P3 were above 8300 nM, above 8300 nM and 185 nM, respectively. Besides, the “FLIPR (% Antagonism) S1P3” value at S1P3 is on record as “(100) %”.

Take `COc1ccc(OC(C(=O)Nc2ccc(Cl)cn2)c2ccc(Cl)cc2)cc1.Cl` (stereo not shown) [Example 3, 2-(4-chlorophenyl)-N-(5-chloropyridin-2-yl)-2-(4-methoxyphenoxy)acetamide hydrochloride]: the EC50 at S1P2 is above 8300 nM; at S1P1 it was above 8300 nM; at S1P3 it was 166 nM. In addition, at S1P3, the “FLIPR (% Antagonism) S1P3” value was “(98) %”.

As to `Cl.O=C(Nc1ccc(F)cn1)C(Oc1ccc(Br)cc1)c1ccc(Cl)cc1` (stereo not shown) [Example 4, 2-(4-bromophenoxy)-2-(4-chlorophenyl)-N-(5-fluoropyridin-2-yl)acetamide hydrochloride], the figures for the EC50 on S1P2, on S1P1 and on S1P3 were above 8300 nM, above 8300 nM and 325 nM, respectively. For the same compound, the “FLIPR (% Antagonism) S1P3” value at S1P3 is “(97) %”.

Turning to `Cl.O=C(Nc1ccc(Br)cn1)C(Oc1ccc(Br)cc1)c1ccc(Cl)cc1` (stereo not shown) [Example 5, 2-(4-bromophenoxy)-N-(5-bromopyridin-2-yl)-2-(4-chlorophenyl)acetamide hydrochloride], the concentration giving a half-maximal response (EC50) was above 8300 nM at S1P2, above 8300 nM at S1P1 and 90 nM at S1P3. Also, at S1P3, the “FLIPR (% Antagonism) S1P3” value is listed as “(97) %”.

`Cl.O=C(Nc1ccc(Cl)cn1)C(Oc1ccc(Br)cc1)c1ccc(Cl)cc1` (stereo not shown) [Example 6, 2-(4-bromophenoxy)-2-(4-chlorophenyl)-N-(5-chloropyridin-2-yl)acetamide hydrochloride]: the EC50 at S1P2 was above 8300 nM; on S1P1 it was above 8300 nM; on S1P3, 103 nM. The “FLIPR (% Antagonism) S1P3” value at S1P3 is on record as “(97) %”.

As for `Cl.O=C(Nc1ccc(F)cn1)C(Oc1ccc(Cl)cc1)c1ccc(Cl)cc1` (stereo not shown) [Example 7, 2-(4-chlorophenoxy)-2-(4-chlorophenyl)-N-(5-fluoropyridin-2-yl)acetamide hydrochloride], the EC50 on S1P2 is above 8300 nM; at S1P1 it was above 8300 nM; at S1P3, 316 nM. Besides, the “FLIPR (% Antagonism) S1P3” value at S1P3 is “(97) %”.

For `Cl.O=C(Nc1ccc(Br)cn1)C(Oc1ccc(Cl)cc1)c1ccc(Cl)cc1` (stereo not shown) [Example 8, N-(5-bromopyridin-2-yl)-2-(4-chlorophenoxy)-2-(4-chlorophenyl)acetamide hydrochloride], the figures for the 50% effective concentration (EC50) on S1P2, on S1P1 and on S1P3 were above 8300 nM, above 8300 nM and 15 nM, respectively. Besides, the “FLIPR (% Antagonism) S1P3” value on S1P3 is reported as “(97) %”.

Regarding `Cl.O=C(Nc1ccc(Cl)cn1)C(Oc1ccc(Cl)cc1)c1ccc(Cl)cc1` (stereo not shown) [Example 9, 2-(4-chlorophenoxy)-2-(4-chlorophenyl)-N-(5-chloropyridin-2-yl)acetamide hydrochloride], the half-maximal effective concentration (EC50) at S1P2 was above 8300 nM; at S1P1 it was above 8300 nM; at S1P3, 27 nM. In addition, the “FLIPR (% Antagonism) S1P3” value at S1P3 is recorded as “(97) %”.

For `O=C(Nc1ccc(Br)cn1)C(Sc1ccccc1)c1ccccc1` (stereo not shown) [Example 10, N-(5-bromopyridin-2-yl)-2-phenyl-2-(phenylthio)acetamide hydrochloride], the EC50 at S1P2 is above 8300 nM; at S1P1 it was above 8300 nM; at S1P3 it was 256 nM. Moreover, the “FLIPR (% Antagonism) S1P3” value at S1P3 is “(100) %”.

Regarding `COc1ccc(SC(C(=O)Nc2ccc(Br)cn2)c2ccc(Cl)cc2)cc1.Cl` (stereo not shown) [Example 11, N-(5-bromopyridin-2-yl)-2-(4-chlorophenyl)-2-(4-methoxyphenylthio)acetamide hydrochloride], the EC50 at S1P2 is above 8300 nM; on S1P1, above 8300 nM; at S1P3, 361 nM. Besides, at S1P3, the “FLIPR (% Antagonism) S1P3” value is given as “(100) %”.

In the case of `COc1ccc(SC(C(=O)Nc2ccc(Cl)cn2)c2ccc(Cl)cc2)cc1` (stereo not shown) [Example 12, 2-(4-chlorophenyl)-N-(5-chloropyridin-2-yl)-2-(4-methoxyphenylthio)acetamide hydrochloride], the EC50 on S1P2 was above 8300 nM; on S1P1 it was above 8300 nM; on S1P3, 376 nM. Also, at S1P3, the “FLIPR (% Antagonism) S1P3” value is listed as “(99) %”.

For `O=C(Nc1ccc(Cl)cn1)C(Sc1ccc(F)cc1)c1ccc(Cl)cc1` (stereo not shown) [Example 13, 2-(4-chlorophenyl)-N-(5-chloropyridin-2-yl)-2-(4-fluorophenylthio)acetamide hydrochloride], the EC50 on S1P2 is above 8300 nM; at S1P1 it was above 8300 nM; at S1P3, 198 nM. The “FLIPR (% Antagonism) S1P3” value at S1P3 is “(99) %”.

As for `O=C(Nc1ccc(Br)cn1)C(Sc1ccc(F)cc1)c1ccc(Cl)cc1` (stereo not shown) [Example 14, N-(5-bromopyridin-2-yl)-2-(4-chlorophenyl)-2-(4-fluorophenylthio)acetamide hydrochloride], the EC50 is above 8300 nM on S1P2, above 8300 nM at S1P1 and 127 nM on S1P3. The “FLIPR (% Antagonism) S1P3” value on S1P3 was “(99) %”.

On to `Cc1ccc(SC(C(=O)Nc2ccc(Cl)cn2)c2ccc(Cl)cc2)cc1C` (stereo not shown) [Example 15, 2-(4-chlorophenyl)-N-(5-chloropyridin-2-yl)-2-(3,4-dimethylphenylthio)acetamide hydrochloride], for which the EC50 was above 8300 nM on S1P2, above 8300 nM on S1P1 and 240 nM on S1P3. Moreover, at S1P3, the “FLIPR (% Antagonism) S1P3” value is “(98) %”.

For the compound `Cc1ccc(SC(C(=O)Nc2ccc(Br)cn2)c2ccc(Cl)cc2)cc1` (stereo not shown) [Example 16, N-(5-bromopyridin-2-yl)-2-(4-chlorophenyl)-2-(p-tolylthio)acetamide hydrochloride], the EC50 is above 8300 nM on S1P2, above 8300 nM on S1P1 and 256 nM on S1P3. Moreover, at S1P3, the “FLIPR (% Antagonism) S1P3” value is listed as “(100) %”.

With `Cc1ccc(SC(C(=O)Nc2ccc(Cl)cn2)c2ccc(Cl)cc2)cc1` (stereo not shown) [Example 17, 2-(4-chlorophenyl)-N-(5-chloropyridin-2-yl)-2-(p-tolylthio)acetamide hydrochloride], the EC50 is above 8300 nM on S1P2, above 8300 nM at S1P1 and 322 nM at S1P3. Besides, the “FLIPR (% Antagonism) S1P3” value on S1P3 is “(99) %”.

Take `O=C(Nc1ccc(Br)cn1)C(Sc1ccc(Cl)c(Cl)c1)c1ccccc1` (stereo not shown) [Example 18, N-(5-bromopyridin-2-yl)-2-(3,4-dichlorophenylthio)-2-phenylacetamide]: the EC50 was above 8300 nM on S1P2, above 8300 nM at S1P1 and 133 nM at S1P3. For the same compound, at S1P3, the “FLIPR (% Antagonism) S1P3” value was “(97) %”.

For the compound `O=C(Nc1ccc(Cl)cn1)C(Sc1ccc(Cl)c(Cl)c1)c1ccccc1` (stereo not shown) [Example 19, N-(5-chloropyridin-2-yl)-2-(3,4-dichlorophenylthio)-2-phenylacetamide], the EC50 on S1P2 is above 8300 nM; at S1P1, above 8300 nM; on S1P3, 106 nM. Moreover, the “FLIPR (% Antagonism) S1P3” value at S1P3 is reported as “(97) %”.
